Measurements as given in patent US20030083558A1, “Method of examining and diagnosing skin health” (priority 2001, published 2003).

Tests used:
IL-1 RA = assay: Study 2: IL-1 RA in ISF by ELISA, effect of supplementation; format: in vivo, human
Description: (§1) The laser made four pores at each collection site.
(§2) The other skin analytes were measured in Study 2 using standard ELISA kits: MMP-1 (ELISA Cat # QIA55, Oncogene Research Products, Cambridge Mass.); Total IgE (ELISA Cat # RE59061, IBL, Hamburg, Germany distributed by KMI Diagnostics); Non Extraction IGF-1 (ELISA Cat # DSL-10-2800, Diagnostics Systems Laboratories, Webster Tex.); IL-1 RA (ELISA Cat # DRA00, R&D Systems, Minneapolis, Minn.); IL-1A (ELISA Cat # EH2IL1A, Pierce/Endogen, Rockford, Ill.).

IL-1A = assay: Study 2: IL-1A in ISF by ELISA, effect of supplementation; format: in vivo, human
Description: as §1, §2

IgE = assay: Study 2: IgE in ISF by ELISA, effect of supplementation; format: in vivo, human
Description: as §1, §2

MMP-1 = assay: Study 2: MMP-1 in ISF by ELISA, effect of supplementation; format: in vivo, human
Description: as §1, §2

[1] = parameters: species or system human; details: in vivo
Description: The studies included non-smoking, female subjects of good health over the age of 35 years and under the age 55 years with skin type of III or less by the Fitzpatrick Skin classification. […] Acceptable subjects were chronologically enrolled in the study following a randomization code describing what treatment would be applied to which dorsal forearm. […] The subject applied a blinded emulsion designated by a letter to one dorsal forearm and an alternative emulsion with a different designation to the opposite arm, twice per day, for three weeks. […] ISF was extracted from the dorsal forearm, volar upper arm, and serum at one week (“Week 2”) and three weeks after dosing (“Week 4”) and two weeks after the cessation of dosing (“Week 6”).
ISF was extracted from both the treatment site (dorsal forearm) as well as an adjacent, untreated site volar upper arm) following one week of therapy and three weeks of therapy. Subjects ended treatment at this point and returned for a final extraction two weeks later.
The ISF collection period lasted between three and six hours, typically four hours.

Influence of topical application on levels at an adjacent, untreated site or the serum [1]: does not influence
Level at application site two weeks after ending therapy (week six) [1]: decreased to approximate baseline values
Response of serum level to topical therapy [1]: did not respond
SMILES: O=C1O[C@H]([C@@H](O)CO)C(O)=C1O [Vitamin C]
Effect of vitamin C supplement on concentration of IL-1 RA in ISF (IL-1 RA): significantly increased
Effect of vitamin C supplement on concentration of IL-1A in ISF (IL-1A): significantly increased
Effect of vitamin C supplement on concentration of IgE in ISF (IgE): significantly increased
Effect of vitamin C supplement on concentration of MMP-1 in ISF (MMP-1): significantly increased
MMP-1 (log), Sun-exposed, Supplement Yes, MEAN (MMP-1; sun-exposed ISF): 0.64
MMP-1 (log), Sun-protected, Supplement Yes, MEAN (MMP-1; sun-protected ISF): 0.91
